Source: patent publication US11208400B2, “Substituted 6-(1H-pyrazol-1-yl)pyrimidin-4-amine derivatives and uses thereof” (Bayer Aktiengesellschaft, priority 2016, dated 2021)

Target: T1, human Npt2a (Homo sapiens, UniProt Q06495)
T1 construct: expressed in transfected cells
T1 sequence (Q06495 1-639): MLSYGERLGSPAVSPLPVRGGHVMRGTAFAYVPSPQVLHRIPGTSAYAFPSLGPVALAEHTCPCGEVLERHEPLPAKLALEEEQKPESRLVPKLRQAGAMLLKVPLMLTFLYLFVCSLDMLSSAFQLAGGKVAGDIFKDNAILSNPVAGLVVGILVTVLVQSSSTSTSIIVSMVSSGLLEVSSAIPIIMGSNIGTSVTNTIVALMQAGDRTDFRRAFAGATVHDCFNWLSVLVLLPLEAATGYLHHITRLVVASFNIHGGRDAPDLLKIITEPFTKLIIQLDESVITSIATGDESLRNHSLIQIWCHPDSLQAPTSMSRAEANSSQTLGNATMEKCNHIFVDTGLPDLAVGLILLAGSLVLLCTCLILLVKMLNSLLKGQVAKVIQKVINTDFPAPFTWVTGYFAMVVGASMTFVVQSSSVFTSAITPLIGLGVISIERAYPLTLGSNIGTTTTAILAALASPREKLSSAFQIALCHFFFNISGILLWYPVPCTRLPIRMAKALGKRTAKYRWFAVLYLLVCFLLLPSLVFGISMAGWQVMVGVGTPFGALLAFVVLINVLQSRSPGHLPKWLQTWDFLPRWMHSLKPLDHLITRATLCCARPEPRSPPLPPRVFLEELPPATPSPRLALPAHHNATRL
Assay: Npt2a activity cell based assay, membrane potential dye, CHO T-REx hNpt2a cells
Details: doxycycline-induced, depolarization by sodium phosphate influx, average or median values if tested more than once
Summary of the method: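 Cells were doxycycline-induced CHO T-REx hNpt2a, dye-loaded and pretreated 5 min at RT with 1 nM–50 μM compound in Na-free pH 7.4 buffer. IC50 was fit to the post/pre-trigger fluorescence ratio.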

Cc1nn(-c2cc(Nc3nn(C)c(-c4ccc(F)cc4)c3C3CC3)ncn2)c2ccccc12 [Example 44, N-[4-cyclopropyl-5-(4-fluorophenyl)-1-methyl-1H-pyrazol-3-yl]-6-(3-methyl-1H-indazol-1-yl)pyrimidin-4-amine]
IC50: 5.35 nM

Cc1nn(-c2cc(Nc3c(C4CC4)c(-c4ccc(F)cc4)nn3C)ncn2)c(C)c1Cl [Example 45, 6-(4-chloro-3,5-dimethyl-1H-pyrazol-1-yl)-N-[4-cyclopropyl-3-(4-fluorophenyl)-1-methyl-1H-pyrazol-5-yl]pyrimidin-4-amine]
IC50: 29 nM

CCc1c(Nc2cc(-n3nc4c(c3C)CCCC4)ncn2)nn(C)c1-c1ccc(F)cc1 [Example 46, N-[4-ethyl-5-(4-fluorophenyl)-1-methyl-1H-pyrazol-3-yl]-6-(3-methyl-4,5,6,7-tetrahydro-2H-indazol-2-yl)pyrimidin-4-amine]
IC50: 6.5 nM

Cc1nn(-c2cc(Nc3c(C4CC4)c(-c4ccc(F)cc4)nn3C)ncn2)c2ccccc12 [Example 47, N-[4-cyclopropyl-3-(4-fluorophenyl)-1-methyl-1H-pyrazol-5-yl]-6-(3-methyl-1H-indazol-1-yl)pyrimidin-4-amine]
IC50: 89 nM

Cc1nn(-c2cc(Nc3c(Cl)c(-c4ccc(F)cc4F)nn3C)ncn2)c(C)c1Cl [Example 48, N-[4-chloro-3-(2,4-difluorophenyl)-1-methyl-1H-pyrazol-5-yl]-6-(4-chloro-3,5-dimethyl-1H-pyrazol-1-yl)pyrimidin-4-amine]
IC50: 310 nM

Cc1nn(-c2cc(Nc3c(Cl)c(-c4ccc(F)cc4F)nn3C)ncn2)c2ccccc12 [Example 49, N-[4-chloro-3-(2,4-difluorophenyl)-1-methyl-1H-pyrazol-5-yl]-6-(3-methyl-1H-indazol-1-yl)pyrimidin-4-amine]
IC50: 310 nM

Cc1cc(C)n(-c2cc(Nc3c(Cl)c(-c4ccc(F)cc4F)nn3C)ncn2)n1 [Example 50, N-[4-chloro-3-(2,4-difluorophenyl)-1-methyl-1H-pyrazol-5-yl]-6-(3,5-dimethyl-1H-pyrazol-1-yl)pyrimidin-4-amine]
IC50: 160 nM

CCOC(=O)c1c(C)nn(-c2cc(Nc3n[nH]c(-c4ccccc4)c3Cl)ncn2)c1C [Example 51, ethyl 1-{6-[(4-chloro-5-phenyl-1H-pyrazol-3-yl)amino]pyrimidin-4-yl}-3,5-dimethyl-1H-pyrazole-4-carboxylate]
IC50: 100 nM

Cc1cc(C)n(-c2cc(Nc3nn(C)c(-c4ccccc4)c3Cl)ncn2)n1 [Example 52, N-(4-chloro-1-methyl-5-phenyl-1H-pyrazol-3-yl)-6-(3,5-dimethyl-1H-pyrazol-1-yl)pyrimidin-4-amine]
IC50: 83 nM

Cc1nn(-c2cc(Nc3nn(C)c(-c4ccccc4)c3Cl)ncn2)c(C)c1Cl [Example 53, 6-(4-chloro-3,5-dimethyl-1H-pyrazol-1-yl)-N-(4-chloro-1-methyl-5-phenyl-1H-pyrazol-3-yl)pyrimidin-4-amine]
IC50: 11.3 nM

Cc1nn(-c2cc(Nc3n[nH]c(-c4ccccc4)c3Cl)ncn2)c(C)c1Cl [Example 54, 6-(4-chloro-3,5-dimethyl-1H-pyrazol-1-yl)-N-(4-chloro-5-phenyl-1H-pyrazol-3-yl)pyrimidin-4-amine]
IC50: 90.3 nM

Cc1cc(C)n(-c2cc(Nc3nn(C)c(-c4ccc(F)cc4F)c3Cl)ncn2)n1 [Example 55, N-[4-chloro-5-(2,4-difluorophenyl)-1-methyl-1H-pyrazol-3-yl]-6-(3,5-dimethyl-1H-pyrazol-1-yl)pyrimidin-4-amine]
IC50: 133 nM

Cc1nn(-c2cc(Nc3nn(C)c(-c4ccc(F)cc4F)c3Cl)ncn2)c(C)c1Cl [Example 56, N-[4-chloro-5-(2,4-difluorophenyl)-1-methyl-1H-pyrazol-3-yl]-6-(4-chloro-3,5-dimethyl-1H-pyrazol-1-yl)pyrimidin-4-amine]
IC50: 20.5 nM

Cc1nn(-c2cc(Nc3nn(C)c(-c4ccc(F)cc4F)c3Cl)ncn2)c2ccccc12 [Example 57, N-[4-chloro-5-(2,4-difluorophenyl)-1-methyl-1H-pyrazol-3-yl]-6-(3-methyl-1H-indazol-1-yl)pyrimidin-4-amine]
IC50: 117 nM
